Test results as given in the supplement of paper PMC10307832.

Tests used:
Assay in all cases: relative viability (nuclei count vs DMSO), 5 days (fraction); higher = more cells survive
NCI-H1755 = test system: NCI-H1755
Method in brief: (§1)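 Dosing by pin tool came one day after lung cancer cell lines were seeded in 1536-well plates, using either one drug or a fixed anchor-drug dose plus five library-drug doses (not always all listed) in √10 steps. After 5 days, nuclei were counted on 4× images. Relative viability is treated-well nuclei count divided by vehicle-well nuclei count, and values are medians of duplicate plates.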

NCI-H1792 = test system: NCI-H1792
Method in brief: as §1

NCI-H1915 = test system: NCI-H1915
Method in brief: as §1

NCI-H1944 = test system: NCI-H1944
Method in brief: as §1

NCI-H1975 = test system: NCI-H1975
Method in brief: as §1

NCI-H2085 = test system: NCI-H2085
Method in brief: as §1

NCI-H2170 = test system: NCI-H2170
Method in brief: as §1

NCI-H358 = test system: NCI-H358
Method in brief: as §1

NCI-H460 = test system: NCI-H460
Method in brief: as §1

SK-LU-1 = test system: SK-LU-1
Method in brief: as §1

UMC-11 = test system: UMC-11
Method in brief: as §1

SMILES: NC(=O)Nc1cc(-c2cccc(F)c2)sc1C(=O)N[C@H]1CCCNC1 [AZD7762] + C[C@@H](Oc1cc(-c2cnn(C3CCNCC3)c2)cnc1N)c1c(Cl)ccc(F)c1Cl [Crizotinib] (partner 1 µM)
- relative viability (NCI-H1755; first compound 0.1 µM): 0.929
- relative viability (NCI-H1755; first compound 0.3162 µM): 0.853
- relative viability (NCI-H1755; first compound 1 µM): 0.508
- relative viability (NCI-H1792; first compound 0.01 µM): 1.06
- relative viability (NCI-H1792; first compound 0.03162 µM): 1
- relative viability (NCI-H1792; first compound 0.1 µM): 0.975
- relative viability (NCI-H1792; first compound 0.3162 µM): 0.646
- relative viability (NCI-H1792; first compound 1 µM): 1.12
- relative viability (NCI-H1915; first compound 0.01 µM): 0.93
- relative viability (NCI-H1915; first compound 0.03162 µM): 0.919
- relative viability (NCI-H1915; first compound 0.1 µM): 0.891
- relative viability (NCI-H1915; first compound 0.3162 µM): 0.944
- relative viability (NCI-H1915; first compound 1 µM): 0.823
- relative viability (NCI-H1944; first compound 0.01 µM): 1.29
- relative viability (NCI-H1944; first compound 0.03162 µM): 1.22
- relative viability (NCI-H1944; first compound 0.1 µM): 1.2
- relative viability (NCI-H1944; first compound 0.3162 µM): 1.19
- relative viability (NCI-H1944; first compound 1 µM): 0.918
- relative viability (NCI-H1975; first compound 0.01 µM): 1.06
- relative viability (NCI-H1975; first compound 0.03162 µM): 0.937
- relative viability (NCI-H1975; first compound 0.1 µM): 0.837
- relative viability (NCI-H1975; first compound 0.3162 µM): 0.903
- relative viability (NCI-H1975; first compound 1 µM): 0.638
- relative viability (NCI-H2085; first compound 0.01 µM): 1.01
- relative viability (NCI-H2085; first compound 0.03162 µM): 0.889
- relative viability (NCI-H2085; first compound 0.1 µM): 0.839
- relative viability (NCI-H2085; first compound 0.3162 µM): 0.853
- relative viability (NCI-H2085; first compound 1 µM): 0.644
- relative viability (NCI-H2170; first compound 0.01 µM): 1.2
- relative viability (NCI-H2170; first compound 0.03162 µM): 1.26
- relative viability (NCI-H2170; first compound 0.1 µM): 1.24
- relative viability (NCI-H2170; first compound 0.3162 µM): 1.28
- relative viability (NCI-H2170; first compound 1 µM): 1
- relative viability (NCI-H358; first compound 0.01 µM): 0.743
- relative viability (NCI-H358; first compound 0.03162 µM): 0.695
- relative viability (NCI-H358; first compound 0.1 µM): 0.581
- relative viability (NCI-H358; first compound 0.3162 µM): 0.521
- relative viability (NCI-H358; first compound 1 µM): 0.202
- relative viability (NCI-H460; first compound 0.01 µM): 1.13
- relative viability (NCI-H460; first compound 0.03162 µM): 0.879
- relative viability (NCI-H460; first compound 0.1 µM): 0.758
- relative viability (NCI-H460; first compound 0.3162 µM): 0.593
- relative viability (NCI-H460; first compound 1 µM): 0.0457
- relative viability (SK-LU-1; first compound 0.01 µM): 0.991
- relative viability (SK-LU-1; first compound 0.03162 µM): 0.714
- relative viability (SK-LU-1; first compound 0.1 µM): 0.38
- relative viability (SK-LU-1; first compound 0.3162 µM): 0.226
- relative viability (SK-LU-1; first compound 1 µM): 0.285
- relative viability (UMC-11; first compound 0.01 µM): 0.713
- relative viability (UMC-11; first compound 0.03162 µM): 0.421
- relative viability (UMC-11; first compound 0.1 µM): 0.516
- relative viability (UMC-11; first compound 0.3162 µM): 0.508
- relative viability (UMC-11; first compound 1 µM): 0.142
